System: HT29 cells
Assay: Inhibition of cell necrosis (CCK8 method), induced programmed necrosis of HT29 cells
Type: cell-based
Settings: Homo sapiens, HT-29; rescue from necrosis induced by TNF-α 20 ng/mL, AT-406 1 μM, Z-VAD-FMK 20 μM; 16-20 hours; CCK-8, OD 450 nm
Method: Assay Example 2. Assay Method for Compounds Inhibiting Cell Necrosis (CCK8 Method)
In this assay example 2, under the condition of inducing programmed cell necrosis, different concentrations of the test compounds were added to test the IC50 of the rescue effect of the test compounds on the programmed necrosis.
• Compounds: Dissolved in DMSO to make a 10 mM solution; • TNF-α: The initial concentration was 100 μg/mL; • Z-VAD-FMK: Dissolved in DMSO to make a 10 mM solution; • AT-406: Dissolved in DMSO to make a 10 mM solution. I. Experimental Steps • 1) Compound dilution: All test compounds were dissolved in DMSO to prepare a 10 mM stock solution, and the first concentration gradient dilution of the test compounds was completed in DMSO. The gradient dilution factor was 4 times and 9 concentration gradients were made; A 40-fold overall dilution of all compounds was completed in the cell culture medium, and the resulting compound was 10× compound, which will be added to the wells of the 96-well plate containing cells, so that the final cell culture medium was 1× the designed final concentration. The general drug design is 9 concentration gradients, of which the highest final concentration is 25000 nM, the lowest concentration after 4-fold dilution of 9 concentrations is 0.38 nM, and the final concentration of DMSO in all wells is 0.25%. The compound dilution process is shown in FIG. 3. • 2) HT 29 cells in good growth condition were selected, trypsinized, the cells was collected by centrifugation, resuspended in McCOY's 5A complete medium (containing 10% FBS) and counted, and the number of cells and survival rate were recorded. • 3) Cells were inoculated to the 60 wells in the middle of the 96-well culture plate at a density of 12000 cells/80 μL/well, surrounding wells were filled with sterile water, and incubated overnight. • 4) 10 μL of the 10× compound diluted with the medium was added to the assay wells, 10 μL of McCOY's 5A complete medium containing 2.5% DMSO was added to the inducer-free wells and the control wells, mixed and shaked, and incubated for 30 minutes. • 5) Then 10 μL of inducer mixture (TNF-α, AT-406, Z-VAD-FMK with the final concentration of 20 ng/mL, 1 μM, 20 μM) was added into the assay wells and control wells. 10 μL McCOY's 5A complete medium was added to wells without inducer. Cells were cultured in an incubator with 5% CO2, at 37° C. • 6) After culturing for 16-20 hours, 10 μL of CCK-8 reagent was added to each well, and incubated for about 2 hours; • 7) The OD value was read at 450 nm on the multi-function plate reader. • 8) Data processing: Inhibition rate of necrosis (%)=100*(X−B)/(A−B) • A: The OD values of the wells without inducer (containing cells, CCK-8, without compound and inducer); • […]: OD values of assay wells (containing cells, CCK-8, compound, inducer); • B: OD values of control wells (containing cells, CCK-8, inducer, without compound). Then the value were imported into Graphpad Prism5 software for curve fitting and the IC50 values were calculated.

Compound	IC50
O=C(Nc1cc(-c2cc(OCCCCO)ccc2C(F)(F)F)ccn1)c1nnc(Cc2ccccc2F)[nH]1 [Example 273, 5-(2-fluorobenzyl)-N-(4-(5-(4-hydroxybutoxy)-2-(trifluoromethyl)phenyl)pyridin-2-yl)-4H-1,2,4-triazole-3-carboxamide]	≤ 0.1 µM
CC(C)(C)OCCOc1ccc(C(F)(F)F)c(-c2ccnc(NC(=O)c3nnc(Cc4ccccc4)[nH]3)c2)c1 [Example 291, 5-benzyl-N-(4-(5-(2-(tert-butoxy)ethoxy)-2-(trifluoromethyl)phenyl)pyridin-2-yl)-4H-1,2,4-triazole-3-carboxamide]	≤ 0.1 µM
Cc1ccc(C2CCOCC2)cc1-c1ccnc(NC(=O)c2nnc(Cc3ccccc3)[nH]2)c1 [Example 479, 5-benzyl-N-(4-(2-methyl-5-(tetrahydro-2H-pyran-4-yl)phenyl)pyridin-2-yl)-4H-1,2,4-triazole-3-carboxamide]	0.1 to 1 µM
CC(C)(O)COc1ccc(Cl)c(-c2ccnc(NC(=O)c3nnc(CC4CCCCC4)[nH]3)c2)c1 [Example 366, N-(4-(2-chloro-5-(2-hydroxyl-2-methylpropoxy)phenyl)pyridin-2-yl)-5-(cyclohexylmethyl)-4H-1,2,4-triazole-3-carboxamide]	≤ 0.1 µM
Cc1ccc(OCC2CCOCC2)cc1-c1cc(NC(=O)c2nnc(Cc3ccccc3F)[nH]2)ncn1 [Example 442, 5-(2-fluorobenzyl)-N-(6-(2-methyl-5-((tetrahydro-2H-pyran-4-yl)methoxy)phenyl)pyrimidin-4-yl)-4H-1,2,4-triazole-3-carboxamide]	≤ 0.1 µM
CCOc1ncccc1-c1ccnc(NC(=O)c2nnc(Cc3ccccc3)[nH]2)c1 [Example 22, 5-benzyl-N-(2-ethoxy-[3,4′-bipyridin]-2′-yl)-4H-1,2,4-triazole-3-carboxamide]	1 to 10 µM
CCc1ccc(F)c(Cc2nnc(C(=O)Nc3cc(-c4cc(OCCCC(C)(C)O)ccc4Cl)ccn3)[nH]2)c1 [Example 350, N-(4-(2-chloro-5-((4-hydroxy-4-methylpentyl)oxy)phenyl)pyridin-2-yl)-5-(5-ethyl-2-fluorobenzyl)-4H-1,2,4-triazole-3-carboxamide]	0.1 to 1 µM
CC(C)(O)CCCOc1ccc(C(F)(F)F)c(-c2cc(NC(=O)c3nnc(Cc4ccccc4)[nH]3)ncn2)c1 [Example 450, 5-benzyl-N-(6-(5-((4-hydroxy-4-methylpentyl)oxy)-2-(trifluoromethyl)phenyl)pyrimidin-4-yl)-4H-1,2,4-triazole-3-carboxamide]	≤ 0.1 µM
Cc1ccc(OCC2CCCCO2)cc1-c1ccnc(NC(=O)c2nnc(Cc3ccccc3)[nH]2)c1 (centres unmarked) [Example 123, 5-benzyl-N-(4-(2-methyl-5-((tetrahydro-2H-pyran-2-yl)methoxy)phenyl)pyridin-2-yl)-4H-1,2,4-triazole-3-carboxamide]	≤ 0.1 µM
COCCCC(O)c1ccc(C)c(-c2ccnc(NC(=O)c3nnc(Cc4ccccc4)[nH]3)c2)c1 (centres unmarked) [Example 484, 5-benzyl-N-(4-(5-(1-hydroxyl-4-methoxybutyl)-2-methylphenyl)pyridin-2-yl)-4H-1,2,4-triazole-3-carboxamide]	≤ 0.1 µM
Cc1ccc(OCCCC(C)(C)O)cc1-c1ccnc(NC(=O)c2nnc(Cc3ccc(F)c(F)c3)[nH]2)c1 [Example 192, 5-(3,4-difluorobenzyl)-N-(4-(5-((4-hydroxy-4-methylpentyl)oxy)-2-methylphenyl)pyridin-2-yl)-4H-1,2,4-triazole-3-carboxamide]	≤ 0.1 µM
COCCOc1cccc(-c2ccnc(NC(=O)c3nnc(Cc4ccccc4)[nH]3)c2)c1C [Example 96, 5-benzyl-N-(4-(3-(2-methoxyethoxy)-2-methylphenyl)pyridin-2-yl)-4H-1,2,4-triazole-3-carboxamide]	0.1 to 1 µM
Cc1ccc(OCCCC(C)(C)O)cc1-c1ccnc(NC(=O)c2nnc(Cc3cccc(Cl)c3F)[nH]2)c1 [Example 491, 5-(3-chloro-2-fluorobenzyl)-N-(4-(5-((4-hydroxy-4-methylpentyl)oxy)-2-methylphenyl)pyridin-2-yl)-4H-1,2,4-triazole-3-carboxamide]	0.1 to 1 µM
Cc1ccc(OCC2CCOCC2)cc1-c1cc(NC(=O)c2nnc(Cc3ccccc3F)[nH]2)ncc1F [Example 496, N-(5-fluoro-4-(2-methyl-5-((tetrahydro-2H-pyran-4-yl)methoxy)phenyl)pyridin-2-yl)-5-(2-fluorobenzyl)-4H-1,2,4-triazole-3-carboxamide]	≤ 0.1 µM
COCCOc1ccc(C(F)(F)F)c(-c2ccnc(NC(=O)c3nnc(Cc4ccccc4)[nH]3)c2)c1 [Example 279, 5-benzyl-N-(4-(5-(2-methoxyethoxy)-2-(trifluoromethyl)phenyl)pyridin-2-yl)-4H-1,2,4-triazole-3-carboxamide]	≤ 0.1 µM
O=C(Nc1cc(-c2cc(OCC3CCOCC3)ccc2F)c(Cl)cn1)c1nnc(CC2CCCCC2)[nH]1 [Example 330, 5-(cyclohexylmethyl)-N-(5-chloro-4-(2-fluoro-5-((tetrahydro-2H-pyran-4-yl)methoxy)phenyl)pyridin-2-yl)-4H-1,2,4-triazole-3-carboxamide]	0.1 to 1 µM
Cc1ccc(OCC2CCOCC2)cc1-c1ccnc(NC(=O)c2nnc(CC3CCCCC3)[nH]2)c1 [Example 80, 5-(cyclohexylmethyl)-N-(4-(2-methyl-5-((tetrahydro-2H-pyran-4-yl)methoxy)phenyl)pyridin-2-yl)-4H-1,2,4-triazole-3-carboxamide]	≤ 0.1 µM
Cc1ccc(OCCCCCCCCO)cc1-c1ccnc(NC(=O)c2nnc(Cc3ccccc3)[nH]2)c1 [Example 154, 5-benzyl-N-(4-(5-((8-hydroxyoctyl)oxy)-2-methylphenyl)pyridin-2-yl)-4H-1,2,4-triazole-3-carboxamide]	≤ 0.1 µM
O=C(Nc1cc(C2CCOCC2)ccn1)c1nnc(Cc2ccccc2)[nH]1 [Example 49, 5-benzyl-N-(4-(tetrahydro-2H-pyran-4-yl)pyridin-2-yl)-4H-1,2,4-triazole-3-carboxamide]	1 to 10 µM
O=C(Nc1cc(-c2cc(OCC3CCOCC3)ccc2Cl)c(F)cn1)c1nnc(Cc2ccccc2F)[nH]1 [Example 422, N-(4-(2-chloro-5-((tetrahydro-2H-pyran-4-yl)methoxy)phenyl)-5-fluoropyridin-2-yl)-5-(2-fluorobenzyl)-4H-1,2,4-triazole-3-carboxamide]	≤ 0.1 µM
CCOc1ccc(C)nc1-c1ccnc(NC(=O)c2nnc(Cc3ccccc3)[nH]2)c1 [Example 62, 5-benzyl-N-(3-ethoxy-6-methyl-[2,4′-bipyridin]-2′-yl)-4H-1,2,4-triazole-3-carboxamide]	> 10 µM
O=C(Nc1cc(-c2cc(OCC3CCOCC3)ccc2C(F)(F)F)ccn1)c1nnc(Cc2ccccc2)[nH]1 [Example 299, 5-benzyl-N-(4-(5-((tetrahydro-2H-pyran-4-yl)methoxy)-2-(trifluoromethyl)phenyl)pyridin-2-yl)-4H-1,2,4-triazole-3-carboxamide]	≤ 0.1 µM
Cc1ccc(N(C)CCCO)cc1-c1ccnc(NC(=O)c2nnc(Cc3ccccc3)[nH]2)c1 [Example 57, 5-benzyl-N-(4-(5-((3-hydroxypropyl)(methyl)amino)-2-methylphenyl)pyridin-2-yl)-4H-1,2,4-triazole-3-carboxamide]	0.1 to 1 µM
C=CCOc1ccc(C)c(-c2ccnc(NC(=O)c3nnc(Cc4ccccc4)[nH]3)c2)c1 [Example 82, N-(4-(5-(allyloxy)-2-methylphenyl)pyridin-2-yl)-5-benzyl-4H-1,2,4-triazole-3-carboxamide]	0.1 to 1 µM
COc1cc(Cc2nnc(C(=O)Nc3cc(-c4cc(OCCCC(C)(C)O)ccc4Cl)ccn3)[nH]2)ccc1F [Example 343, N-(4-(2-chloro-5-((4-hydroxy-4-methylpentyl)oxy)phenyl)pyridin-2-yl)-5-(4-fluoro-3-methoxybenzyl)-4H-1,2,4-triazole-3-carboxamide]	1 to 10 µM
CC(C)OCCOc1ccc(C(F)(F)F)c(-c2ccnc(NC(=O)c3nnc(CC4CCCCC4)[nH]3)c2)c1 [Example 290, 5-(cyclohexylmethyl)-N-(4-(5-(2-isopropoxyethoxy)-2-(trifluoromethyl)phenyl)pyridin-2-yl)-4H-1,2,4-triazole-3-carboxamide]	≤ 0.1 µM
